Source: patent US5834452A, “1- or 6-hydroxylated steroids” (Roussel Uclaf, priority 1996, dated 1998)

Biological target: T1, Human estrogen receptor (HOR) (Homo sapiens, UniProt P03372)
T1 construct: made in house; host or cells: SF9 insect cells (baculovirus), lysate supernatant
T1 sequence (P03372 1-595): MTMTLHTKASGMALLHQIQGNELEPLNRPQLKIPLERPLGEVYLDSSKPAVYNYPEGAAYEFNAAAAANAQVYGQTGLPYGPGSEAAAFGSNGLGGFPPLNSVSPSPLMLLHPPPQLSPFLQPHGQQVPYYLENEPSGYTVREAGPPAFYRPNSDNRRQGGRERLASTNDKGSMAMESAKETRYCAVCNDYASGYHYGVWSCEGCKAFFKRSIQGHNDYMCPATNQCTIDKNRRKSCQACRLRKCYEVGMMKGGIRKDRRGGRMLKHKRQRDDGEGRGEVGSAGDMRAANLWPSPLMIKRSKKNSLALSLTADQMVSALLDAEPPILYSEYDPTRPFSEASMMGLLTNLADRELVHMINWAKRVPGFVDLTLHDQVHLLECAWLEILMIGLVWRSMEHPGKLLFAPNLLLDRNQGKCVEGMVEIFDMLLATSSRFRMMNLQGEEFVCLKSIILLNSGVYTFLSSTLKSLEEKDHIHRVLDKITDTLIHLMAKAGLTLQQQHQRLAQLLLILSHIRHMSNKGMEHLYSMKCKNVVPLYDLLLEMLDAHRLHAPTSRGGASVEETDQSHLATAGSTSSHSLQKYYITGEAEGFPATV
Test: Relative bond affinity (RBA), recombinant human estrogen receptor, charcoal dextran technique
Type: binding
Details: 24 h at 0° C., Estradiol = 100
Description: The human recombinant receptor (HGR, HPR, HAR, HMR, HER) was used.
Human estrogen receptor (HOR):
A supernatant of SF9 cells containing the recombinant human estrogen receptor was obtained by the process described above for the progestogen receptor using the cDNA fragment described in the expression vector HEGO by Tora et al (The EMBO Journal, (1989), Vol. 8 No. 7, p. 1981-1986) containing the region coding for the human estrogen receptor of "wild type" with a glycine in position 400. The cells obtained were lysed in the lysis buffer (1).
The supernatant was incubated at 0° C. for 24 hours with a constant concentration (T) of tritiated estradiol in the presence of increasing concentrations of either unlabelled estradiol (0-1000×10^-9 M), or the unlabelled product to be tested (1 to 25000×10^-9 M). The concentration of bound tritiated estradiol (B) was then measured in each incubate using the charcoal dextran adsorption technique.
Calculation of the relative bond affinity (RBA).
The following two curves were drawn: the percentage of bound tritiated hormone B/BO as a function of the logarithm of the concentration of unlabelled reference hormone or as a function of the logarithm of the concentration of unlabelled test product. The straight line of the following equation was determined: […]
The intersections of the straight line I50 and the curves allowed the evaluation of the concentrations of unlabelled reference hormone (CH) and of the unlabelled test product (CX) which inhibited by 50% the specific binding of the tritiated hormone on the receptor.
The relative bond affinity (RBA) of the test product was determined by the equation:
The RBA's of reference products Estradiol, Progesterone Dexamethasone, Testosterone and Aldosterone were arbitrarily taken as being equal to 100.

C[C@H](O)C(=O)[C@@]1(C)CC[C@H]2[C@@H]3C[C@@H](O)C4=CC(=O)CCC4=C3CC[C@@]21C [Product B, [6β, 17β-(S)]-6-hydroxy-17-(2-hydroxy-1-oxopropyl)-17-methyl-Δ^4,9-estradiene-3-one]
RBA, Human estrogen receptor: 0
RBA, Human estrogen receptor (listed as product B): zero

C[C@H](O)C(=O)[C@@]1(C)CC[C@H]2[C@@H]3CCC4=CC(=O)CCC4=C3CC[C@@]21C [Trimegestone, [17β-(S)]-17-(2-hydroxy-1-oxopropyl)-17-methyl-Δ^4,9-estradiene-3-one, reference compound]
RBA, Human estrogen receptor: 0
RBA, Human estrogen receptor (listed as Trimegesterone): zero
